One test concerns the target Kv1.3 channel. The following applies: whole-cell patch-clamp; mouse channels, L929 mouse fibroblast cells; read-out: Kd (published); cited from earlier work. From the text: Table 1 The Kap values for the complexes formed by K-ΔKv1.3 with the studied pore blockers and published data on the affinities of these blockers. | column: KTx1; ChTx; AgTx2; TEA
For test [1], the target named is K-ΔKv1.3 (N-terminally truncated human Kv1.3 tagged with mKate2) (Homo sapiens, UniProt P22001). Put plainly: Fluorescent competitive binding assay (FCBA), displacement of A-HgTx from K-ΔKv1.3. Also on record: expressed in transfected cells; host or cells: HEK293 (transient transfection with pmKate2-KCNA3-del).
Chain of K-ΔKv1.3 (N-terminally truncated human Kv1.3 tagged with mKate2) (P22001 53-575 limits assumed, stated change not applied): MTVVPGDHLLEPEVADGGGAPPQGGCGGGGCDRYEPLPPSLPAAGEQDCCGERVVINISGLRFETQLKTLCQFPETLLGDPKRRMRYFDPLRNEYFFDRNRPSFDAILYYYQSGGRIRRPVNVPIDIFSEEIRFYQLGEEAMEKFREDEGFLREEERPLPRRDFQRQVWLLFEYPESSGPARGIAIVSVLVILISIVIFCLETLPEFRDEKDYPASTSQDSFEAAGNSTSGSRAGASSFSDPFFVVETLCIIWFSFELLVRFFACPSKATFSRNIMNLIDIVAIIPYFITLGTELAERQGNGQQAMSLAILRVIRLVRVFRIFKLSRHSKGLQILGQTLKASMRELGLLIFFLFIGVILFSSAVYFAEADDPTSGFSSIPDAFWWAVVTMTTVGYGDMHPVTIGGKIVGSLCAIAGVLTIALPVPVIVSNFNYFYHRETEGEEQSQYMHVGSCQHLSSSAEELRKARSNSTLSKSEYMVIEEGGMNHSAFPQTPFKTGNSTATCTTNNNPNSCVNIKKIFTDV
Text: To quantitatively characterize formation of complexes between A-HgTx and K-ΔKv1.3 on cell membranes, the confocal images of A-HgTx bound at the membrane of the K-ΔKv1.3 presenting cells were subjected to the treatment procedure as follows. Regions of interest (ROIs) corresponding to the plasma membranes stained with K-ΔKv1.3 were selected. Using a set of these ROIs and a threshold procedure (to null a background signal from pixels without K-ΔKv1.3 signal), the binary (0;1) mask that describes membranous localization of K-ΔKv1.3 was created. The images of K-ΔKv1.3 and A-HgTx distribution were multiplied by the corresponding mask. Next, average intensities of fluorescence of K-ΔKv1.3 (Ici) and A-HgTx (Ili) were calculated for each ROI (i.e., for each i-cell), and a ratio Ri was calculated as follows. Ri = (Ili − Ilb)/(Ici − Icb) (1) where Ilb and Icb are intensities of background signals in the fluorescent images of A-HgTx and Kv1.3 channels, respectively. Calculating Ri (i.e., normalizing A-HgTx intensity to that of K-ΔKv1.3), a correction was introduced for variations in a level of K-ΔKv1.3 expression on the membrane of particular cells. Ri values of 15–20 cells were averaged to obtain the Rav value, and a standard deviation was calculated.
Concentration of A-HgTx was 2 nM. Concentration of pore blockers C varied as indicated in the graph.
When Kd of A-HgTx and IC50 for the studied compound are known, the apparent dissociation constant Kap of complexes between the compound and channel can be calculated using the Cheng-Prusoff equation [50]:Kap = IC50/(1 + L/Kd)(4) where L is the concentration of A-HgTx in the competitive binding experiment.
In A-HgTx binding experiments, cells were incubated with A-HgTx (0.15–4 nM) for 30 min (37 °C, 5% CO2) in the complete medium. In competitive binding experiments, cells were incubated with A-HgTx (2 nM) and selected pore blocker at variable concentrations (0.5–100 nM for recombinant peptides and 1–20 mM for TEA) for 30 min (37 °C, 5% CO2) in the complete medium.
Experiments with HEK293 cells were performed with a laser scanning confocal microscope Leica-SP2 (Leica Microsystems GmbH, Wetzlar, Germany). The water-immersion 63×/1.2 NA HCX PL APO objective was used.
Fluorescence of mKate2-fused hKv1.3 was excited at the 561 nm wavelength and recorded in the 650–700 nm range. Fluorescence of A-HgTx was excited at the 488 nm wavelength and recorded in the 495–535 nm range. Distributions of A-HgTx and mKate2 fluorescence in cells were imaged using sequential scanning to avoid interference of intrinsic cellular fluorescence excited at the 488 nm with the mKate2 fluorescence.
Each experimental point in the curves describing interaction A-HgTx with mKate2-tagged Kv1.3 channels is an average over 15–25 treated images of cells. […]

As for `CC[N+](CC)(CC)CC` [TEA, tetraethylammonium], the Kd on Kv1.3 channel was 10 mM; in test [1] (Cheng-Prusoff from IC50, 2 nM A-HgTx, blockers 0.5–100 nM (peptides) or 1–20 mM (TEA), 30 min, 37 °C, 5% CO2, complete medium, HEK293 cells, mean ± SEM, three independent measurements, read-out: Kap, apparent dissociation constant of complexes formed by K-ΔKv1.3 with pore blocker) it was 2 mM. Besides, in test [1] (FCBA, HEK293 cells, result in words), the “active concentration range (FCBA)” value is “active in the millimolar concentration range”. In addition, the “displacement of A-HgTx from the complexes with K-ΔKv1.3” value in test [1] (living HEK293 cells, 2 nM A-HgTx, result in words) was “A-HgTx is also displaced”.
